PMC12526212, “Novel Isolongifolenone-Based Caprolactam Derivatives as Potential Anticancer Agents via the p53/mTOR/Autophagy Pathway” (Molecules, 2025)

Columns and labels:
MCF-7 cells [1] = assay: Annexin V/PI apoptosis assay by flow cytometry; format: cell-based, human; details: Figure 6A, in comparison with control
Description: The ability of drugs to induce cancer cell apoptosis is a key indicator of their chemotherapeutic potential. […] To examine the apoptotic effects of E10, an Annexin V-FITC dual-staining assay (with flow cytometric analysis) was performed. As shown in Figure 3A (also Figure 3C), treatment with increasing concentrations of E10 induced a marked elevation in apoptotic cell populations.
Autophagy has bidirectional regulation effects on cell survival. To confirm the role of autophagy in E10-induced cell death, 3-MA was used as an autophagy blocker.
MCF-7 cells were seeded at a density of 6 × 10^5 cells per well in 12-well plates and incubated in a 37 °C, 5% CO2 incubator for 24 h. After treatment with different concentrations of compound E10, the cells were washed with PBS two times, collected by trypsin enzymic digestion and centrifugation, and the collected cells were subsequently stained with 5 µL Annexin V-APC (YSRIBIO-C1084) and 5 µL PI for 10 min in the dark conditions. The cell apoptosis was measured with the flow cytometry (BD), and the data were analyzed by flowjo 10.6 software.

MCF-7 cells [2] = assay: Monodansylcadaverine (MDC) staining assay for autophagy; format: cell-based, human; details: 24 h, compared with control; 3-MA as co-treatment with E10
Description: To investigate whether E10 induced autophagy in MCF-7 cells, we performed Monodansylcadaverine (MDC) staining, transmission electron microscopy (TEM), and Western blot analysis to evaluate autophagy-related markers. MDC is a fluorescent probe commonly used to detect the formation of autophagic vacuoles, as it specifically labels autophagosomes.
MDC is a staining indicator for the formation of autophagosome. MCF-7 cells were seeded at a density of 2 × 10^5 cells per well in 6-well plates. MCF-7 cells were inoculated into a 6-well plate, and the cells were treated with E10 for 24 h. The treated cells were washed twice with buffer and then stained with MDC (Beijing Solarbio Science & Technology Co., Ltd., Beijing, China) for 40 min. The cells were then detected under a fluorescence microscope (Carl Zeiss, Jena, Germany).

In the case of `Cn1cnc(N)c2ncnc1-2` [3-MA, 3-methyladenine, reference compound], the “cell apoptosis with or without autophagy blocker 3-MA” value (MCF-7 cells [1]) was “reversed E10-induced apoptosis” and the “MDC staining, autophagosome formation” value (MCF-7 cells [2]) was “marked reduction in fluorescence intensity”.
